Assay: recombinant barcode read abundance after kanamycin selection (control-corrected) (log10(CPM+1)); higher = more efficient recombination; sequences stand for … in AGTGCAGAGAAAATCGGCCAGTTTTCTCTGCCTGCAGTCCGCATGCCGT…AGATTTATGCAGCGGACTGCCTTTCTCCCAAAGTGATAAACCGGACAGTATCATGGACCGGTTTTCCCGGTAATCCGTATTTGCAAGGTTGGTTTCACT; site = the 11-nt target
How it was run: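 A promoter, a target, a barcode and the first 104 bridge RNA bases under J23119 made up each oligo. Oligos were Gibson-cloned into a vector bearing the other 73 bp and a T7-inducible recombinase, then co-electroporated into E. coli with a donor plasmid and plated in duplicate on chloramphenicol/ampicillin LB agar (control) or chloramphenicol/ampicillin/kanamycin with 0.1 mM IPTG. Recombination efficiency is the averaged, control-corrected counts per million of recombinant-junction barcodes. Reported values are log10(CPM+1).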
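Note: IS621 recombinase and bridge RNA in Escherichia coli cells.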

| Sequence | recombinant barcode read abundance (log10) |
| --- | --- |
| GATACGGCTTGGGTTCTAACCTGTTGCCT (site GATACGGCTAG) | 0.149 |
| GATACGGCTTGGGTTCTAACCTGTTGCCT (site GATACGTCTAG) | 0.0137 |
| GATAGGCCTTGGGTTCTAACCTGTTGCCT (site GATAGGCCTAG) | 0.101 |
| GATAGGCCTTGGGTTCTAACCTGTTGCCT (site GTTAGGCCTAG) | 0.031 |
| GATAGTCCTTGGGTTCTAACCTGTTGCCT (site GATAGTACTAG) | 0.122 |
| GATAGTCCTTGGGTTCTAACCTGTTGCCT (site GATAGTCCTAG) | 0.322 |
| GATAGTCCTTGGGTTCTAACCTGTTGCCT (site GATAGTGCTAG) | 0.161 |
| GATAGTCCTTGGGTTCTAACCTGTTGCCT (site GATAGTTCTAG) | 0.159 |
| GATATAGCTTGGGTTCTAACCTGTTGCGG (site GATATAGCTCC) | 2.31 |
| GATATAGCTTGGGTTCTAACCTGTTGCGG (site GTGATAGCTCC) | 0.0376 |
| GATCCCACTTGGGTTCTAACCTGTTGCCT (site GATCCCACTAG) | 1.34 |
| GATCCCACTTGGGTTCTAACCTGTTGCCT (site GATGCCACTAG) | 0.192 |
| GATCGATCTTGGGTTCTAACCTGTTGCCT (site GATCGATCTAA) | 0.0447 |
| GATCGATCTTGGGTTCTAACCTGTTGCCT (site GATCGATCTAC) | 0.159 |
| GATCGATCTTGGGTTCTAACCTGTTGCCT (site GATCGATCTAG) | 0.663 |
| GATCGATCTTGGGTTCTAACCTGTTGCCT (site GATCGATCTAT) | 0.0541 |
| GATCGATCTTGGGTTCTAACCTGTTGCTT (site GATCGATCTAA) | 0.349 |
| GATCGATCTTGGGTTCTAACCTGTTGCTT (site GATCGATCTAC) | 0 |
| GATCGATCTTGGGTTCTAACCTGTTGCTT (site GATCGATCTAG) | 0.248 |
| GATCGATCTTGGGTTCTAACCTGTTGCTT (site GATCGATCTAT) | 0.0953 |

| Sequence | recombinant barcode read abundance (log10) |
| --- | --- |
| GATCGGACTTGGGTTCTAACCTGTTGCGG (site GATCGGACTCC) | 1.69 |
| GATCGGACTTGGGTTCTAACCTGTTGCGG (site GTTCGGACTCC) | 0.596 |
| GATGCACCTTGGGTTCTAACCTGTTGCGG (site GATGCACCTCC) | 2.36 |
| GATGCACCTTGGGTTCTAACCTGTTGCGG (site TGATTGACTAA) | 0.0617 |
| GATGCTACTTGGGTTCTAACCTGTTGCAG (site GATACTACTCT) | 0.0793 |
| GATGCTACTTGGGTTCTAACCTGTTGCAG (site GATGCTACTCT) | 1.04 |
| GATGCTACTTGGGTTCTAACCTGTTGCGG (site GAAGCTACTAC) | 0.128 |
| GATGCTACTTGGGTTCTAACCTGTTGCGG (site GATGCTACTCC) | 2.14 |
| GATGGAGCTTGGGTTCTAACCTGTTGCGG (site GATCGAGCTTC) | 0.198 |
| GATGGAGCTTGGGTTCTAACCTGTTGCGG (site GATGGAGCTCC) | 2.57 |
| GATGGGTCTTGGGTTCTAACCTGTTGCCT (site GATGGGTCTAG) | 1.37 |
| GATGGGTCTTGGGTTCTAACCTGTTGCCT (site GCTGGGTCTAG) | 0.015 |
| GATGGTCCTTGGGTTCTAACCTGTTGCGG (site GACGGTCCTCC) | 0.306 |
| GATGGTCCTTGGGTTCTAACCTGTTGCGG (site GATGGTCCTCC) | 2.34 |
| GATTATACTTGGGTTCTAACCTGTTGCTT (site GATTATACTAA) | 0.0285 |
| GATTATACTTGGGTTCTAACCTGTTGCTT (site TGCGGAGCTCG) | 0.046 |
| GATTCTCCTTGGGTTCTAACCTGTTGCCT (site GATTCTCCTAA) | 0.0949 |
| GATTCTCCTTGGGTTCTAACCTGTTGCCT (site GATTCTCCTAC) | 0.0529 |
| GATTCTCCTTGGGTTCTAACCTGTTGCCT (site GATTCTCCTAG) | 0.0773 |
| GATTCTCCTTGGGTTCTAACCTGTTGCCT (site GATTCTCCTAT) | 0 |

| Sequence | recombinant barcode read abundance (log10) |
| --- | --- |
| GATTGTCCTTGGGTTCTAACCTGTTGCTT (site GATTGTCCTAA) | 0.294 |
| GATTGTCCTTGGGTTCTAACCTGTTGCTT (site GGTTGTCCTTA) | 0.23 |
| GCAATCCCTTGGGTTCTAACCTGTTGCTA (site AGAATCCCTTA) | 0.0668 |
| GCAATCCCTTGGGTTCTAACCTGTTGCTA (site GCAATCCCTTA) | 1.48 |
| GCAATTGCTTGGGTTCTAACCTGTTGCCT (site AAGTCGTCTTA) | 0.19 |
| GCAATTGCTTGGGTTCTAACCTGTTGCCT (site GCAATTGCTAG) | 0.458 |
| GCACAAGCTTGGGTTCTAACCTGTTGCCT (site GCACAAGCTAG) | 0.978 |
| GCACAAGCTTGGGTTCTAACCTGTTGCCT (site GCTCTAGCTAG) | 0.091 |
| GCACATACTTGGGTTCTAACCTGTTGCCT (site GCACATACTAG) | 1.2 |
| GCACATACTTGGGTTCTAACCTGTTGCCT (site GCACATTCTAG) | 0 |
| GCACCAACTTGGGTTCTAACCTGTTGCCT (site CCACCGACTAG) | 0.242 |
| GCACCAACTTGGGTTCTAACCTGTTGCCT (site GCACCAACTAG) | 1.12 |
| GCACGACCTTGGGTTCTAACCTGTTGCCT (site GCACAACCTAG) | 0.808 |
| GCACGACCTTGGGTTCTAACCTGTTGCCT (site GCACCACCTAG) | 0.0505 |
| GCACGACCTTGGGTTCTAACCTGTTGCCT (site GCACGACCTAG) | 1.56 |
| GCACGACCTTGGGTTCTAACCTGTTGCCT (site GCACTACCTAG) | 0 |
| GCACGGACTTGGGTTCTAACCTGTTGCAG (site GCAAGGACTCT) | 0.223 |
| GCACGGACTTGGGTTCTAACCTGTTGCAG (site GCACGGACTCT) | 2.35 |
| GCACGGACTTGGGTTCTAACCTGTTGCAG (site GCAGGGACTCT) | 0.164 |

From the supplement of paper PMC11208160
